Results published in ChEMBL document CHEMBL1201862, “PubChem BioAssay data set” (2004).
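48-hour exposure; five concentrations; linearly interpolated endpoints. At the GI50, growth is halved.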 The source made the active and inactive calls. No stated cut-off is given here; in the data, active = GI50 up to about 1.1 µM and inactive = higher.

Assays:
Assay in all cases: inhibition of tumour cell growth, NCI panel, 48 h
MDA-N = system: MDA-N
A549 = system: A549
NCI-H226 = system: NCI-H226
NCI-H23 = system: NCI-H23
OVCAR-4 = system: OVCAR-4
SK-MEL-28 = system: SK-MEL-28
K562 = system: K562
MDA-MB-435 = system: MDA-MB-435
SK-MEL-2 = system: SK-MEL-2
786-0 = system: 786-0
CAKI-1 = system: CAKI-1
Malme-3M = system: Malme-3M
NCI/ADR-RES = system: NCI/ADR-RES
RPMI-8226 = system: RPMI-8226
U-251 = system: U-251
HT-29 = system: HT-29
Hs-578T = system: Hs-578T
CCRF-CEM = system: CCRF-CEM
HCC 2998 = system: HCC 2998
MOLT-4 = system: MOLT-4

Row | SMILES | GI50 (MDA-N) | GI50 (A549) | GI50 (NCI-H226) | GI50 (NCI-H23) | GI50 (OVCAR-4) | GI50 (SK-MEL-28) | GI50 (K562) | GI50 (MDA-MB-435) | GI50 (SK-MEL-2) | GI50 (786-0) | GI50 (CAKI-1) | GI50 (Malme-3M) | GI50 (NCI/ADR-RES) | GI50 (RPMI-8226) | GI50 (U-251) | GI50 (HT-29) | GI50 (Hs-578T) | GI50 (CCRF-CEM) | GI50 (HCC 2998) | GI50 (MOLT-4)
1 | CN1CCN(c2ccc([N+](=O)[O-])c3no[n+]([O-])c23)CC1 | 1.36 µM (inactive) | 0.207 µM (active) | 0.604 µM (active) | < 0.0359 µM (active) | 0.689 µM (active) | 1.98 µM (inactive) | 0.0881 µM (active) | 1.05 µM (active) | 1.34 µM (inactive) | 0.0452 µM (active) | 0.032 µM (active) | 0.16 µM (active) | 0.161 µM (active) | 0.0628 µM (active) | 0.097 µM (active) | 0.18 µM (active) | 0.571 µM (active) | 0.0143 µM (active) |  | 
2 | CCCCCCCCCCCCCC(=O)CBr | 12.3 µM (inactive) | 22.5 µM (inactive) | 17.4 µM (inactive) | 9.77 µM (inactive) | 14.2 µM (inactive) | 16.5 µM (inactive) | 3.53 µM (inactive) | 16.7 µM (inactive) | 11.5 µM (inactive) | 5.13 µM (inactive) | 1.1 µM (active) | 9.06 µM (inactive) |  | 1.47 µM (inactive) | 14.6 µM (inactive) | 15.9 µM (inactive) | 5.64 µM (inactive) | 0.467 µM (active) | 15.8 µM (inactive) | 0.764 µM (active)
3 | CC1C(O)Oc2cc3c(cc2C1c1ccccc1O)OCO3 (stereo not drawn) | 30.5 µM (inactive) | 30.1 µM (inactive) | 18.6 µM (inactive) | 46.1 µM (inactive) |  | 25.8 µM (inactive) | 17.6 µM (inactive) | 29.9 µM (inactive) | 25.9 µM (inactive) | 39.4 µM (inactive) | 29.2 µM (inactive) | 25.3 µM (inactive) |  | 16.7 µM (inactive) | 37.8 µM (inactive) | 23.3 µM (inactive) | 11.5 µM (inactive) | 16.7 µM (inactive) | 38.5 µM (inactive) | 19.3 µM (inactive)
4 | C[C@H](c1ccccc1)N1C(=O)[C@@H](OCc2ccccc2)[C@H]1[C@H](COC(=O)COCc1ccccc1)OCc1ccccc1 | > 100 µM (inactive) | > 100 µM (inactive) | 6.95 µM (inactive) | 57.3 µM (inactive) |  | > 100 µM (inactive) | > 100 µM (inactive) | 54.1 µM (inactive) | > 100 µM (inactive) | > 100 µM (inactive) |  | 11.6 µM (inactive) |  | 27.9 µM (inactive) | > 100 µM (inactive) |  | 60.7 µM (inactive) | > 100 µM (inactive) |  | 67.5 µM (inactive)
5 | COc1cc(/C=C2\C(=O)N(c3ccc(NC(C)=O)cc3)C(c3ccccc3)S2(=O)=O)cc(OC)c1OC (stereo not drawn) | 79.6 µM (inactive) | > 100 µM (inactive) | > 100 µM (inactive) | > 100 µM (inactive) | 60.8 µM (inactive) | > 100 µM (inactive) | 39.9 µM (inactive) | 92.9 µM (inactive) | > 100 µM (inactive) | > 100 µM (inactive) | > 100 µM (inactive) | > 100 µM (inactive) | > 100 µM (inactive) | 60.8 µM (inactive) | > 100 µM (inactive) | > 100 µM (inactive) |  | 44.5 µM (inactive) | > 100 µM (inactive) | 25.1 µM (inactive)
6 | COc1cccc(C2c3cc4c(cc3OC3COC(=O)C32)OCO4)c1OC (stereo not drawn) | 3.93 µM (inactive) | > 100 µM (inactive) | > 100 µM (inactive) |  | 64.6 µM (inactive) | > 100 µM (inactive) |  |  | 49.4 µM (inactive) | > 100 µM (inactive) | 37.6 µM (inactive) | > 100 µM (inactive) | > 100 µM (inactive) |  |  | > 100 µM (inactive) | 32.7 µM (inactive) | > 100 µM (inactive) | > 100 µM (inactive) | > 100 µM (inactive)
7 | S=C(c1c[nH]c2ccccc12)N1CCN(c2ccccc2)CC1 | > 100 µM (inactive) |  | 7.76 µM (inactive) | > 100 µM (inactive) |  | 86.9 µM (inactive) | > 100 µM (inactive) | > 100 µM (inactive) | > 100 µM (inactive) | 46.9 µM (inactive) | > 100 µM (inactive) | 18.8 µM (inactive) | 34.9 µM (inactive) | > 100 µM (inactive) | 14.2 µM (inactive) | 59.6 µM (inactive) | 1.06 µM (active) | > 100 µM (inactive) |  | > 100 µM (inactive)
8 | C=C(C)CCC1CCCCC(CN(C)C)C1=O (stereo not drawn) | > 100 µM (inactive) | > 100 µM (inactive) | > 100 µM (inactive) | > 100 µM (inactive) | > 100 µM (inactive) | > 100 µM (inactive) | > 100 µM (inactive) | > 100 µM (inactive) | > 100 µM (inactive) | > 100 µM (inactive) | > 100 µM (inactive) |  | > 100 µM (inactive) | > 100 µM (inactive) | > 100 µM (inactive) | > 100 µM (inactive) | > 100 µM (inactive) | > 100 µM (inactive) |  | 31.3 µM (inactive)
9 | CCOP(=O)(OCC)C1CC(O)C(=O)N1 (stereo not drawn) | > 100 µM (inactive) | > 100 µM (inactive) | > 100 µM (inactive) | > 100 µM (inactive) | > 100 µM (inactive) | > 100 µM (inactive) | > 100 µM (inactive) | > 100 µM (inactive) | > 100 µM (inactive) | > 100 µM (inactive) |  | > 100 µM (inactive) | > 100 µM (inactive) | > 100 µM (inactive) | > 100 µM (inactive) | > 100 µM (inactive) | > 100 µM (inactive) | > 100 µM (inactive) |  | > 100 µM (inactive)
10 | CSc1nc(C#N)c(/N=C\N(C)C)n1C | > 100 µM (inactive) | > 100 µM (inactive) | > 100 µM (inactive) | > 100 µM (inactive) | > 100 µM (inactive) | > 100 µM (inactive) | > 100 µM (inactive) | > 100 µM (inactive) | > 100 µM (inactive) | > 100 µM (inactive) | > 100 µM (inactive) | > 100 µM (inactive) | > 100 µM (inactive) | > 100 µM (inactive) | > 100 µM (inactive) |  | > 100 µM (inactive) | > 100 µM (inactive) |  | > 100 µM (inactive)
11 | CCOP(=O)(/C=C\n1ccc(N)nc1=O)OCC | > 100 µM (inactive) | > 100 µM (inactive) | > 100 µM (inactive) | > 100 µM (inactive) | > 100 µM (inactive) | > 100 µM (inactive) | > 100 µM (inactive) | > 100 µM (inactive) | > 100 µM (inactive) | > 100 µM (inactive) | > 100 µM (inactive) |  | > 100 µM (inactive) | > 100 µM (inactive) | > 100 µM (inactive) | > 100 µM (inactive) | 0.349 µM (active) | > 100 µM (inactive) |  | > 100 µM (inactive)
